From patent US20250353857A1, “COMPOUND ACTIVE AS INHIBITOR OF COLONY STIMULATION FACTOR-1 RECEPTOR (CSF-1 R)” (priority 2022, published 2025)

Molecular target: CSF1R (Homo sapiens (Human), UniProt P07333)
Experiment: CSF1R enzymatic inhibitory assay (Invitrogen Z'-LYTE, FRET);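 note: kinase phosphorylates a tyrosine on a coumarin/fluorescein FRET peptide, a protease cuts peptide left unphosphorylated, inhibition quantified from the donor-to-acceptor emission ratio with excitation at 400 nm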
Type: biochemical
Conditions: Z'-LYTE assay, ATP concentration equal to Km, average of at least 2 titration curves; read-out: CSF1R (IC50)

Sequence of CSF1R (P07333 20-972): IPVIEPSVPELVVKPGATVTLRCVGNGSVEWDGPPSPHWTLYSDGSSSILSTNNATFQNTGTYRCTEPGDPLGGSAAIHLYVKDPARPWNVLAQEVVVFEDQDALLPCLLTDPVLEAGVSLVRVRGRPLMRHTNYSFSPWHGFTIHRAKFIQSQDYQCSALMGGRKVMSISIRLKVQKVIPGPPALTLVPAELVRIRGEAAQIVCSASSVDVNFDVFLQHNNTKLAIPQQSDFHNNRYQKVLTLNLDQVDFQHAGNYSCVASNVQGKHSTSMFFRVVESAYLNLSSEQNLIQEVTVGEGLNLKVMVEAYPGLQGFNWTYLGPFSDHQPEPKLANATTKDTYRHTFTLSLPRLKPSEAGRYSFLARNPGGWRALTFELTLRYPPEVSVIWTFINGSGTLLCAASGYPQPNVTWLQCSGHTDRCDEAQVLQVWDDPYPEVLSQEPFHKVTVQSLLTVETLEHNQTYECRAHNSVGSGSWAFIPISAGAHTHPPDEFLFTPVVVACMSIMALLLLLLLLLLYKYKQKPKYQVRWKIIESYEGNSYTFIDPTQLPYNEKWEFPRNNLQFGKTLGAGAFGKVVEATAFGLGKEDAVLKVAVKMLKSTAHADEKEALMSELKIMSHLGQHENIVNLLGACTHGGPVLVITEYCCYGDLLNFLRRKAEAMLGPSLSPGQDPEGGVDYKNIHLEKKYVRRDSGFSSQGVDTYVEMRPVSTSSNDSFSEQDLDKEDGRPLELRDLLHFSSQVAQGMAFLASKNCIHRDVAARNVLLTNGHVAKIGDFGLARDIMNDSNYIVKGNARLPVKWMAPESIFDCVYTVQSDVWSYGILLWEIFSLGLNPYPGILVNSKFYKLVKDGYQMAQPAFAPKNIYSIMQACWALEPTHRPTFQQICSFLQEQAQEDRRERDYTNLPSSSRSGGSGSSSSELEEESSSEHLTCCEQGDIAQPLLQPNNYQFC

Structure (SMILES) | IC50 [nM]
CN(Cc1ccccc1)c1ncnc2sc(-c3ccc(CO)cc3)cc12 [BAHO-3-107, (4-(4-(Benzyl(methyl)amino)thieno[2,3-d]pyrimidin-6-yl)phenyl)methanol] | 707 ± 79
Cc1cccc(CN(C)c2ccnc3[nH]ccc23)c1 [CJ1_78] | > 500
CC(C)N(Cc1ccccc1)c1ncnc2[nH]c(-c3ccc(CO)cc3)nc12 [EH02-21, (4-(6-(Benzyl(isopropyl)amino)-9H-purin-8-yl)phenyl)methanol] | > 1000
CCN(Cc1ccccc1)c1ncnc2[nH]c(-c3ccc(OC)cc3)nc12 [EH-93, N-Benzyl-N-ethyl-8-(4-methoxyphenyl)-9H-purin-6-amine] | > 50
Cc1cccc(CN(C)c2ncnc3[nH]c(-c4ccc(-c5nnn[nH]5)cc4)cc23)c1 [FAB 02-14, 6-(4-(1H-Tetrazol-5-yl)phenyl)-N-methyl-N-(3-methylbenzyl)-7H-pyrrolo[2,3-d]pyrimidin-4-amine] | 3
COc1ccc(-c2cc3c(NCc4ccccc4)ncnc3[nH]2)cc1 [JK-356, N-Benzyl-6-(4-methoxyphenyl)-7H-pyrrolo[2,3-d]pyrimidin-4-amine] | 6.2 ± 0.4
Oc1ccc(-c2cc3c(NCc4ccccc4)ncnc3[nH]2)cc1 [JK-367, 4-(4-(Benzylamino)-7H-pyrrolo[2,3-d]pyrimidin-6-yl)phenol] | > 200
CCOc1ccccc1-c1nc2c(N(C)Cc3ccccc3)ncnc2[nH]1 [JKS01-057, N-Benzyl-8-(2-ethoxyphenyl)-N-methyl-9H-purin-6-amine] | > 1000
C[C@H](c1ccccc1)N(C)c1ncnc2[nH]c(-c3ccccc3)cc12 [KUL01-093, (R)—N-Methyl-6-phenyl-N-(1-phenylethyl)-7H-pyrrolo[2,3-d]pyrimidin-4-amine] | 54 ± 5
OCC(O)(CO)c1ccc(-c2cc3c(N4CCCC4C4CCOCC4)ncnc3[nH]2)cc1 (stereo not drawn) [LR-2-052-2] | 3
Cc1cccc(CN(C)c2ncnc3[nH]c(-c4ccc(C5(O)COC5)cc4)cc23)c1 [LR-2-060-1, 3-(4-(4-(Methyl(3-methylbenzyl)amino)-7H-pyrrolo[2,3-d]pyrimidin-6-yl)phenyl)oxetan-3-ol] | 0.3
Cc1cccc(CN(C)c2ncnc3[nH]c(-c4ccc(C(O)(CO)CO)cc4)cc23)c1 [LR-2-060-2, 2-(4-(4-(Methyl(3-methylbenzyl)amino)-7H-pyrrolo[2,3-d]pyrimidin-6-yl)phenyl)propane-1,2,3-triol] | 3
OC1(c2ccc(-c3cc4c(N5CCCC5C5CCOCC5)ncnc4[nH]3)cc2)COC1 (stereo not drawn) [LR-2-067] | 3
CN(Cc1cccc(Cl)c1)c1ncnc2[nH]c(-c3ccc(CN4CCOCC4)cc3)cc12 [LR-2-088 (3), N-(3-Chlorobenzyl)-N-methyl-6-(4-(morpholinomethyl)phenyl)-7H-pyrrolo[2,3-d]pyrimidin-4-amine] | 0.9 ± 0.9
CN(Cc1ccccc1Cl)c1ncnc2[nH]c(-c3ccc(CN4CCOCC4)cc3)cc12 [LR-2-091 (2), N-(2-Chlorobenzyl)-N-methyl-6-(4-(morpholinomethyl)phenyl)-7H-pyrrolo[2,3-d]pyrimidin-4-amine] | 1.4 ± 0.2
CN(Cc1c(Cl)cccc1Cl)c1ncnc2[nH]c(-c3ccc(CN4CCOCC4)cc3)cc12 [LR-2-094 (2), N-(2,6-Dichlorobenzyl)-N-methyl-6-(4-(morpholinomethyl)phenyl)-7H-pyrrolo[2,3-d]pyrimidin-4-amine] | 8.7 ± 1.1
Cc1cccc(CN(C)c2ncnc3[nH]c(-c4cnn(C(C)C)c4)cc23)c1 [LR-2-108, 6-(1-Isopropyl-1H-pyrazol-4-yl)-N-methyl-N-(3-methylbenzyl)-7H-pyrrolo[2,3-d]pyrimidin-4-amine] | 0.4 ± 0.3

Structure (SMILES) | IC50 [nM]
Cc1cccc(CN(C)c2ncnc3[nH]c(-c4ccc(P(C)(C)=O)cc4)cc23)c1 [LR-2-116, Dimethyl(4-(4-(methyl(3-methylbenzyl)amino)-7H-pyrrolo[2,3-d]pyrimidin-6-yl)phenyl)phosphine oxide] | < 0.2
CN(Cc1cc(Cl)ccc1Cl)c1ncnc2[nH]c(-c3ccc(CN4CCOCC4)cc3)cc12 [LR-2-123, N-(2,5-Dichlorobenzyl)-N-methyl-6-(4-(morpholinomethyl)phenyl)-7H-pyrrolo[2,3-d]pyrimidin-4-amine] | 2.7 ± 0.4
COc1ccc(-c2cc3c(N4CCCC4C)ncnc3[nH]2)cc1 (stereo not drawn) [MS1-60-134, 6-(4-Methoxyphenyl)-4-(2-methylpyrrolidin-1-yl)-7H-pyrrolo[2,3-d]pyrimidine] | 0.7 ± 0.1
COc1ccc(-c2cc3c(N4CCCC4)ncnc3[nH]2)cc1 [MS-46-93, 6-(4-Methoxyphenyl)-4-(pyrrolidin-1-yl)-7H-pyrrolo[2,3-d]pyrimidine] | 1.1 ± 0.1
Cc1ccc(F)c(CN(C)c2ncnc3[nH]c(-c4ccccc4)cc23)c1F [SH-01-126, N-(2,6-Difluoro-3-methylbenzyl)-N-methyl-6-phenyl-7H-pyrrolo[2,3-d]pyrimidin-4-amine] | 9.1 ± 1.1
CN(Cc1c(F)cccc1F)c1ncnc2[nH]c(-c3ccccc3)cc12 [SH-01-127, N-(2,6-Difluorobenzyl)-N-methyl-6-phenyl-7H-pyrrolo[2,3-d]pyrimidin-4-amine] | 9.2 ± 3.3
Cc1ccc(F)c(CN(C)c2ncnc3[nH]c(-c4ccc(CN5CCOCC5)cc4)cc23)c1F [SH-01-128, N-(2,6-Difluoro-3-methylbenzyl)-N-methyl-6-(4-(morpholinomethyl)phenyl)-7H-pyrrolo[2,3-d]pyrimidin-4-amine] | 0.8
CN(Cc1c(F)cccc1F)c1ncnc2[nH]c(-c3ccc(CN4CCOCC4)cc3)cc12 [SH-01-129, N-(2,6-Difluorobenzyl)-N-methyl-6-(4-(morpholinomethyl)phenyl)-7H-pyrrolo[2,3-d]pyrimidin-4-amine] | 1.2
CN(Cc1ccccc1F)c1ncnc2[nH]c(-c3ccc(CO)cc3)nc12 [TIA02-130, N-Methyl-N-(2-fluorobenzyl)-8-(4-(hydroxymethyl)phenyl)-9H-purin-6-amine] | 2.3 ± 0.2
CN(Cc1cccc(F)c1)c1ncnc2[nH]c(-c3ccc(CO)cc3)nc12 [TIA02-132, N-Methyl-N-(3-fluorobenzyl)-8-(4-(hydroxymethyl)phenyl)-9H-purin-6-amine] | 3.5 ± 2.2
CN(Cc1ccccn1)c1ncnc2[nH]c(-c3ccc(CO)cc3)nc12 [TIA02-164, N-Methyl-N-(pyridin-2-ylmethyl)-8-(4-(hydroxymethyl)phenyl)-9H-purin-6-amine] | 11 ± 3
Cc1ccc(CN(C)c2ncnc3[nH]c(-c4ccc(CO)cc4)nc23)cc1 [TIA02-174, N-Methyl-N-(4-methylbenzyl)-8-(4-(hydroxymethyl)phenyl)-9H-purin-6-amine] | 12 ± 1
COc1cccc(CN(C)c2ncnc3[nH]c(-c4ccc(CO)cc4)nc23)c1 [TIA03-014, N-(3-Methoxybenzyl)-N-methyl-8-(4-(hydroxymethyl)phenyl)-9H-purin-6-amine] | 2.7 ± 0.1
CN(Cc1cccnc1)c1ncnc2[nH]c(-c3ccc(CO)cc3)nc12 [TIA03-016, N-Methyl-N-(pyridin-3-ylmethyl)-8-(4-(hydroxymethyl)phenyl)-9H-purin-6-amine] | 3.8 ± 0.4
CN(Cc1cccs1)c1ncnc2[nH]c(-c3ccc(CO)cc3)nc12 [TIA03-066, N-Methyl-N-(thiophen-2-ylmethyl)-8-(4-(hydroxymethyl)phenyl)-9H-purin-6-amine] | 3 ± 0.6
COc1ccc(CN(C)c2ncnc3[nH]c(-c4ccc(CO)cc4)nc23)cc1 [TIA03-078, N-(4-Methoxybenzyl)-N-methyl-8-(4-(hydroxymethyl)phenyl)-9H-purin-6-amine] | 61 ± 3
